Results as given in publication PMC2410273, “Pharmacokinetic behaviour of the chemoprotectants BNP7787 and mesna after an i.v. bolus injection in rats” (British Journal of Cancer, 2004).
Read-outs that look alike come from different tables or passages of the source.

Assay: Pharmacokinetics and tissue distribution of BNP7787 and mesna after i.v. bolus of BNP7787 or mesna in WARD tumour-bearing rats
Type: in vivo, Fischer rats
Conditions: for Kp: female, Fischer, rat, iv, 1000 mg/kg
Source text: The protocol was approved by the ethics committee for animal experiments of the Vrije Universiteit medical center in Amsterdam, The Netherlands. This committee strictly adheres to the standards required by the UKCCCR for the welfare of animals in neoplasia ([Workman et al, 1998]). Female Fischer rats (144–171 g) were obtained from Harlan (Indianapolis, USA) and were implanted subcutaneously in both flanks with fragments (2–3 mm diameter) of the WARD colorectal tumour ([Cao et al, 1994]). The pharmacokinetic study started at the time the tumours had reached a mean size of approximately 600 mm^3 (range 250–900 mm^3).
Tumour-bearing rats were treated with 1000 mg kg^−1 BNP7787 i.v. or 1000 mg kg^−1 mesna i.v. injected in the tail vein. Approximately 5 min before sample collection, the rats were anaesthetised by i.p. injection with 0.1 ml of a mixture of 75 mg ml^−1 ketamine plus 5 mg ml^−1 xylazine per 100 g weight. Blood was obtained by heart puncture at 0, 5, 15, 30, 45, 60, 90 and 150 min after i.v. administration of BNP7787 or mesna. Thereafter, the kidney, liver and tumour were removed by surgical dissection. In addition, at time points 0 and 30 min, skeletal muscle attached to the thighbone was also collected. At each time point three rats were killed.
Immediately after collection, the blood samples, which were collected in cooled EDTA-containing tubes (potassium-EDTA 1.6 mg EDTA ml^−1 blood; Sarstedt, Germany), were centrifuged at 4°C for 10 min at 4000 g. Plasma was separated and immediately deproteinised by adding one volume of sulphuric acid (0.33 M) and one volume of sodium hexametaphosphate (5 g/100 ml). After vortexing and centrifugation for 2 min at 12 000 g, the supernatant was stored in aliquots at −80°C until analysis. One volume of RBCs was washed with 1 volume of cold phosphate-buffered saline (PBS) of pH 7.4 containing sodium phosphate (10 mM) and NaCl (140 mM; Hospital Pharmacy, VUmc, Amsterdam, The Netherlands). This mixture was centrifuged for 2 min, 12 000 g at 4°C. After removing the PBS, the remaining RBCs were stored in liquid nitrogen until further processing.
The kidney, liver, tumour and skeletal muscle were washed with cold PBS before storage in liquid nitrogen. After collection of all the samples at the different time points, tissue homogenates of kidney, liver, tumour and skeletal muscle were prepared by pulverisation using a Braun Micro-dismembrator (Salm and Kipp; Breukelen, The Netherlands) according to the method described by [Peters et al (1986)]. An appropriate volume of aqueous EDTA (1 g l^−1) was added to the RBC and tissue homogenates to obtain a concentration of 100 mg tissue (wet weight) per ml. After sonification (10 min) and vortexing (10 min), the samples were subsequently deproteinised by adding 1 volume of cold sulphuric acid (0.33 M) and 1 volume of cold sodium hexametaphosphate (5 g/100 ml). After thorough vortexing and centrifugation (2 min at 8500 g at 4°C), the supernatants were stored in aliquots at −80° until analysis.
BNP7787 and mesna concentrations were determined selectively in one run using micro-HPLC with a dual electrochemical detector (dual ECD) ([Verschraagen et al, 2003b]). Briefly, citrate-NaOH buffer (40 μl of a mixture of 1 ml 5.0 M sodium hydroxide and 4 ml 0.5 M tri-sodium citrate buffer, pH 3.0) was added to 200 μl of deproteinised plasma, RBC or tissue sample, and the sample was injected into the micro-HPLC system which consisted of a Phenomenex C18 guard column (10 μm, 4 × 2.0 mm) and a Phenomenex Prodigy C18 ODS-3 column (5 μm, 100 × 1.0 mm; Bester, Amstelveen, The Netherlands).

[1] = after 1000 mg kg^−1 BNP7787 i.v., RBC
[2] = after 1000 mg kg^−1 BNP7787 i.v., kidney
[3] = after 1000 mg kg^−1 BNP7787 i.v., liver
[4] = after 1000 mg kg^−1 BNP7787 i.v., plasma
[5] = after 1000 mg kg^−1 BNP7787 i.v., tumour

## O=S(=O)([O-])CCSSCCS(=O)(=O)[O-].[Na+].[Na+] [BNP7787, disodium 2,2′-dithio-bis-ethane sulphonate]
30 min after 1000 mg kg^−1 BNP7787 i.v.
  mean concentration (±s.d.) in skeletal muscle: 36.9 ± 26.0 nmol/g
30 min after 1000 mg kg^−1 mesna i.v.
  mean concentration (±s.d.) in skeletal muscle: 30.3 ± 17.6 nmol/g
RBC, each 1000 mg kg^−1 i.v., P<0.01
  AUC (printed: concentration) after BNP7787 administration compared with after mesna administration: six-fold lower
[1]
  AUC of BNP7787, fold lower than AUC of mesna: 11.4 fold
  time detectable: 30 min
After 1000 mg kg^−1 BNP7787 i.v., all compartments
  time of highest concentrations / peak levels: 5 min
[2]
  AUC of BNP7787, fold lower than AUC of mesna: 2.7 fold
  time detectable: 90 min
[3]
  AUC of BNP7787, fold lower than AUC of mesna: 39.8 fold
  time detectable: 30 min
[4]
  AUC of BNP7787 relative to AUC of mesna: almost two-fold higher
  time detectable: 90 min
[5]
  AUC of BNP7787, fold lower than AUC of mesna: 5.1 fold
  time detectable: 45 min
After 1000 mg kg^−1 mesna i.v., kidney
  time detectable: at least 150 min
After 1000 mg kg^−1 mesna i.v., plasma
  time detectable: at least 150 min
After 1000 mg kg^−1 mesna i.v., tumour
  time detectable: at least 150 min
After equivalent dose of 1000 mg kg^−1 BNP7787, mouse data ref Boven et al, 2002
  AUC^5−60 in plasma, fold higher in rats than in nude mice: 2.7 fold
All other sampled tissue compartments, after either BNP7787 or mesna
  AUC, fold lower than the corresponding value in kidney: at least 5.5 fold
All tissue compartments other than kidney / plasma, after 1000 mg kg^−1 mesna i.v., all tissue compartments other than kidney, read-out: tissue–plasma AUC ratio
  Kp: < 0.3
Kidney / plasma, after 1000 mg kg^−1 BNP7787 i.v., read-out: kidney–plasma AUC ratio
  Kp: 0.9
Kidney / plasma, after 1000 mg kg^−1 mesna i.v., read-out: kidney–plasma AUC ratio
  Kp: 2.1
Liver / plasma, after 1000 mg kg^−1 BNP7787 i.v., read-out: liver–plasma AUC ratio
  Kp: 0.01
Red blood cells / plasma, after 1000 mg kg^−1 BNP7787 i.v., read-out: RBC–plasma AUC ratio
  Kp: 0.01
Tumour / plasma, after 1000 mg kg^−1 BNP7787 i.v., read-out: tumour–plasma AUC ratio
  Kp: 0.08
kidney, each 1000 mg kg^−1 i.v.
  AUC after BNP7787 administration compared with after mesna administration: smaller, but not significant difference
liver, each 1000 mg kg^−1 i.v.
  AUC after BNP7787 administration compared with after mesna administration: not significantly different
plasma, each 1000 mg kg^−1 i.v., P<0.01
  AUC after BNP7787 administration compared with after mesna administration: more than three-fold higher
tumour, each 1000 mg kg^−1 i.v.
  AUC after BNP7787 administration compared with after mesna administration: not significantly different
